Data on five molecules can be found in ChEMBL document CHEMBL1156584, “Metal-free artificial nucleases based on simple oxime and hydroxylamine scaffolds” (Bioorg Med Chem Lett, 2008).

Broadly, the Km is the concentration of substrate that gives half-maximal velocity. Broadly, the kcat/Km is the turnover number divided by the Michaelis constant.

Test [1] deals with Escherichia coli. Put plainly: Inhibition of Escherichia coli DH5alpha pBSK-2 DNA cleavage in HEPES buffer at pH 8.0 after 8 hrs by agarose gel electrophoresis in presence of distamycin. Details: concentration or dose not given beside the values.
Test [2] deals with Escherichia coli. Put plainly: Induction of Escherichia coli DH5alpha pBSK-2 DNA cleavage in PIPES buffer at pH 7.0 after 16 hrs by agarose gel electrophoresis.
In test [3] the test system is Escherichia coli. As to the kind of experiment: Inhibition of Escherichia coli DH5alpha pBSK-2 DNA cleavage in HEPES buffer at pH 8.0 after 8 hrs by agarose gel electrophoresis in presence of DMSO. Details: concentration or dose not given beside the values.
In test [4] the test system is Escherichia coli. As to the kind of experiment: Ratio of Kcat to Km for induction of Escherichia coli DH5alpha pBSK-2 DNA cleavage in PIPES buffer at pH 7.0 after 16 hrs by agarose gel electrophoresis.
Test [5] has as its system Escherichia coli. As to the kind of experiment: Induction of Escherichia coli DH5alpha pBSK-2 DNA cleavage in HEPES buffer at pH 8.0 after 16 hrs by agarose gel electrophoresis.
Test [6] deals with Escherichia coli. Put plainly: Ratio of Kcat to Km for induction of Escherichia coli DH5alpha pBSK-2 DNA cleavage in HEPES buffer at pH 8.0 after 16 hrs by agarose gel electrophoresis.
For test [7], the system named is Escherichia coli. As to the kind of experiment: Inhibition of Escherichia coli DH5alpha pBSK-2 DNA cleavage in CHES buffer at pH 9.0 after 8 hrs by agarose gel electrophoresis in presence of glycerol. Details: scale not given: the % may be the effect or the level left.
The subject of test [8] is Escherichia coli. Put plainly: Ratio of Kcat to Km for induction of Escherichia coli DH5alpha pBSK-2 DNA cleavage in CHES buffer at pH 9.0 after 16 hrs by agarose gel electrophoresis.
In test [9] the test system is Escherichia coli. Put plainly: Induction of Escherichia coli DH5alpha pBSK-2 DNA cleavage in CHES buffer at pH 9.0 after 16 hrs by agarose gel electrophoresis.

SMILES strings stand for the structures.

`CN(C)c1ccc(/C=N/O)cc1`: the Activity in the test on Escherichia coli [1] worked out at 2%. For the same molecule, in the test on Escherichia coli [2], the Km was 140 µM and the kcat is 141 ×10⁻³ /hr. The Activity in the test with Escherichia coli [3] was 8%. Further, the kcat/Km in the test with Escherichia coli [4] came to 0.28 M⁻¹ s⁻¹.

With `CN(C)c1ccc(CNO)cc1`, the Activity in the test with Escherichia coli [1] was 14%. In the test on Escherichia coli [5], the Km is 140 µM and the kcat was determined as 79 ×10⁻³ /hr. The Activity in the test on Escherichia coli [3] is 12%. The specificity constant (kcat/Km) with Escherichia coli [6] came out at 0.158 M⁻¹ s⁻¹.

With `ON(Cc1ccccc1)Cc1ccccc1`, the Activity in the test on Escherichia coli [1] came out at 10%. In the test on Escherichia coli [5], the Km worked out at 110 µM and the kcat came out at 157 ×10⁻³ /hr. For the same molecule, the Activity with Escherichia coli [3] came out at 14%. Also, the kcat/Km in the test with Escherichia coli [6] was found to be 0.398 M⁻¹ s⁻¹.

As to `NOCc1ccccc1`, the Activity with Escherichia coli [1] worked out at 61%; in the test on Escherichia coli [7], 71%; in the test on Escherichia coli [3], 73%. For the same molecule, in the test on Escherichia coli [8], the catalytic efficiency (kcat/Km) worked out at 1.68 M⁻¹ s⁻¹. For the same molecule, in the test on Escherichia coli [9], the Km came to 70 µM. For the same molecule, in the test with Escherichia coli [9], the kcat was 424 ×10⁻³ /hr.

In the case of `ONCc1ccc2c(c1)OCO2`, the Activity in the test on Escherichia coli [1] came to 20%; with Escherichia coli [3], 16%. Also, the Km in the test on Escherichia coli [5] is 60 µM. Besides, the kcat with Escherichia coli [5] came out at 187 ×10⁻³ /hr. Moreover, the kcat/Km with Escherichia coli [6] turned out to be 0.869 M⁻¹ s⁻¹.
